Holding throughout (assay): DTP human tumour cell line panel, 48 h
Experiment [1] has as its system SK-OV-3 ovarian.
Experiment [2] concerns TK-10 renal.
The subject of experiment [3] is M14 melanoma.
Experiment [4] deals with K-562 leukemia.
Experiment [5] relates to CCRF-CEM leukemia.
Experiment [6] deals with NCI-H522 lung.
The subject of experiment [7] is SF-539 CNS.
The subject of experiment [8] is RXF 393 renal.
Experiment [9] deals with NCI/ADR-RES ovarian.

The record followed here is PubChem BioAssay (NCI).

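Cultured in 96-well plates, cells were exposed to test compound for 48 hours across five concentrations. GI50 is the concentration that inhibits growth by half. TGI is the concentration that stops growth completely.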 Some results are limits rather than exact numbers.

What is called TGI is the concentration giving total growth inhibition. Read a high TGI as less potent growth arrest. In the case of `Cc1ccc(NC(=O)CCC(=O)C(C#N)c2ccccc2)cc1C` (centres undefined), the concentration for total growth inhibition (TGI) in experiment [1], in experiment [2], in experiment [3], in experiment [4], in experiment [5] and in experiment [6] was greater than 100 µM throughout. In experiment [7], the TGI was greater than 100 µM.
For `COc1ccc2nc3cccc(C(=O)NCCN(C)C)c3nc2c1`, the TGI is greater than 28 µM in experiment [1]; 3.21 µM in [8]; 8.6 µM in [2]; 6.94 µM in experiment [4]; greater than 100 µM in experiment [6]; 8.8 µM in [7].
Regarding `CCOC(=O)/N=c1/nc(N(C)C)ss1`, the TGI in experiment [1], in [8], in experiment [2], in [3], in [4] and in experiment [5] was greater than 100 µM in each case. For the same compound, the TGI in [6] and in [7] was greater than 100 µM each time.
As for `NCP(=O)(O)OCC(=O)O`, the concentration for total growth inhibition (TGI) in experiment [1], in experiment [8], in experiment [2], in experiment [3], in experiment [4] and in experiment [5] was greater than 100 µM in each case. In addition, the TGI in experiment [6] and in experiment [7] was greater than 100 µM throughout.
Regarding `Nc1ccc(C(=O)N/C(=C\c2cccc([N+](=O)[O-])c2)c2nc3c4c(ccc3[nH]2)C(=O)c2ccccc2C4=O)cc1`, the TGI in experiment [1] is greater than 100 µM; in experiment [8], 57.7 µM; in experiment [2] it was 77 µM; in experiment [3] it was greater than 100 µM; in experiment [4], greater than 100 µM; in experiment [5], greater than 100 µM. The TGI was 71.2 µM in experiment [6] and greater than 100 µM in experiment [7].
What is called GI50 is the concentration that inhibits growth by half. For `C#Cc1cc2c(N)c(C(=O)c3cc(OC)c(OC)c(OC)c3)[nH]c2cc1OC`, the GI50 is 0.517 µM in experiment [1]; 17.8 µM in experiment [2]; 0.521 µM in experiment [3]; 0.462 µM in [4]; 0.63 µM in experiment [5]; 0.28 µM in [7]. For the same compound, the TGI in [1] is greater than 100 µM; in [2], greater than 100 µM; in experiment [3] it was greater than 100 µM; in experiment [4], greater than 100 µM; in [5], greater than 100 µM; in experiment [7] it was 1.6 µM.
As for `O=C1c2ccn(CCCCN3CCC(O)CC3)c2C(=O)c2c1c(O)c1ccccc1c2O`, the GI50 in experiment [1] is 41.3 µM; in [2], 1.65 µM; in experiment [3] it was 1.95 µM; in experiment [4], 1.77 µM; in experiment [9], 78.8 µM; in experiment [6], 2.86 µM. Further, the GI50 in experiment [7] is 43.8 µM. The TGI is greater than 74.6 µM in experiment [1]; 3.36 µM in experiment [2]; 3.69 µM in experiment [3]; greater than 100 µM in [4]; greater than 100 µM in experiment [9]; 14.4 µM in experiment [6]. In experiment [7], this compound had a TGI greater than 100 µM.
For `Nc1c(-c2nc3ccccc3[nH]2)sc(=S)n1-c1ccc(Cl)cc1`, the TGI in [1] was 56.9 µM; in experiment [8], 41.3 µM; in experiment [2] it was 56.1 µM; in experiment [3] it was 82.7 µM; in experiment [4], greater than 100 µM; in experiment [5] it was greater than 100 µM. The TGI in experiment [6] was 58.1 µM; in experiment [7], 37.2 µM.
As for `CCOC(=O)NC(=O)c1c[nH]c(=O)[nH]c1=O`, the TGI in experiment [1], in [2], in experiment [3], in experiment [4], in [5] and in [7] was greater than 100 µM throughout.
Consider `C1C[OH+]CC[OH+]CC[OH+]CC[OH+]CC[OH+]CC[OH+]1.[Cl-].[Nb+5]`, for which the GI50 in experiment [1] is greater than 100 µM; in [8] it was 85.3 µM; in experiment [2], greater than 100 µM; in [3], greater than 100 µM; in experiment [4], greater than 100 µM; in experiment [6] it was greater than 100 µM. Moreover, the GI50 in experiment [7] is greater than 100 µM. Further, the TGI in experiment [1], in experiment [8], in experiment [2], in [3], in experiment [4] and in experiment [6] was greater than 100 µM in each case. Moreover, the TGI in experiment [7] was greater than 100 µM.
As for `CN(C)CC1CCCC/C1=N/OC(=O)c1ccc(Cl)c(Cl)c1` (centres undefined), the TGI in experiment [1], in [8], in experiment [2], in experiment [3], in [4] and in experiment [5] was greater than 100 µM each time. Moreover, the TGI in experiment [6] and in experiment [7] was greater than 100 µM each time.
Consider `Nc1nc(N)c(-c2ccccc2)c(CCC(=O)Nc2ccc(Cl)cc2)n1`, for which the TGI in experiment [1], in [2], in [3], in experiment [4], in experiment [5] and in experiment [6] was greater than 100 µM throughout. In [7], this compound showed a TGI greater than 100 µM.
With `CC1=C(C(=O)Nc2ccccc2)C(c2ccc(C(C)C)cc2)C(C(=O)Nc2ccccc2)=C(C)N1`, the TGI was 82.9 µM in experiment [1]; 27.6 µM in experiment [8]; greater than 100 µM in [2]; 55.9 µM in experiment [3]; 54.9 µM in experiment [4]; 75.2 µM in experiment [5]. The results for the TGI in [6] and in [7] were 45.4 µM and 17.6 µM, respectively.
Regarding `CC(C)(C)OC(=O)N1N=NC2C3OC(CC3=O)C21` (centres undefined), the TGI in experiment [1], in experiment [2], in [3], in [4], in [5] and in experiment [6] was greater than 100 µM in each case. The same compound had a TGI in experiment [7] greater than 100 µM.
`COc1ccc(C(=O)O/N=C2/CCC/C2=C\c2ccccc2)cc1`: the TGI in experiment [1], in experiment [8], in experiment [2], in experiment [3], in experiment [4] and in [5] was greater than 100 µM each time. Moreover, the TGI in [6] was greater than 100 µM; in experiment [7] it was 99.6 µM.
